Results as given in patent US8058455B2, “Compound signamycin, method for production thereof, and use thereof” (priority 2008, dated 2011).
≈ marks a conversion by molar mass, not a printed value.

Columns and labels:
[1] = target: PehS of soft-rot bacteria MAFF301393 strain (PehS-209-484) (Pectobacterium carotovorum subsp. carotovorum, UniProt Q9ZIN8); test: PehS histidine kinase activity inhibitory test; type: biochemical, Erwinia carotovora subsp. carotovora MAFF301393; conditions: for inhibitory activity against PehS (in words): summary of Table 2
Procedure: Signamycin A and signamycin B were measured for enzyme inhibitory activity against PehS of soft-rot bacteria MAFF301393 strain (Erwinia carotovora subsp. carotovora MAFF301393).
(§1) The histidine kinase activity was measured according to the method reported in Biosci. Biotechnol. Biochem., 64, 919-923, 2000.
(§2) A DNA fragment encoding a region containing only the kinase activity domain of YycG (i.e., a region containing the 209th amino acid to the 484th amino acid from the N-terminus) was prepared through PCR from the chromosomal DNA of the soft-rot bacteria MAFF301393 strain, and was cloned into the expression vector pET21a (+). The thus-obtained plasmid pET-pehScM2-2 was used to transform Escherichia coli cells. The culture liquid of the thus-transformed strain was treated to purify a protein expressing only the histidine kinase activity domain of PehS (PehS-209-484).
The reaction solution having the following formulation was used for measuring histidine kinase activity: 4 μM PehS-209-484, 50 mM Tris-HCl (pH 8.5), 100 mM KCl, 100 mM NH4Cl and 5 mM MgCl2. A 2.5 μM ATP-10 μCi [γ-^32P] ATP mixture was added to the reaction solution to initiate the reaction so that the total amount was adjusted to 10 μL. The resultant mixture was incubated at 30° C. for 20 min. After termination of the reaction, SDS-polyacrylamide gel electrophoresis was performed. For measuring inhibitory activity, signamycin A or signamycin B was added to the reaction solution before the addition of the ATP mixture so as to have a predetermined concentration, followed by incubating at 30° C. for 5 min, to thereby determine the 50% inhibitory concentration (IC50) with respect to PehS of soft-rot bacteria.

[2] = system: E. faecium NTCTC 12204 (VRE, vanA); test: Antimicrobial activity (MIC), agar multiple dilution method; type: cell-based; conditions: Enterococcus faecium, 18 h
Procedure: (§3) According to the standard method of Japanese Society of Chemotherapy, signamycin A and signamycin B were measured for antimicrobial spectrum against various microorganisms including drug-resistant bacteria (methicilline resistant bacteria and vancomycin resistant bacteria) on the Muller Hinton agar medium by the multiple dilution method.

[3] = system: E. faecalis NCTC 12201 (VRE, vanA); test: as above; type: cell-based; conditions: Enterococcus faecalis, 18 h
Procedure: as §3

E. faecium JCM 5804 = test: as above; type: cell-based; conditions: Enterococcus faecium, JCM5804, Muller Hinton agar, 37° C., 18 hrs.
Procedure: as §3

[4] = system: Mycobacterium smegmatis ATCC607; test: as above; type: cell-based; conditions: Mycolicibacterium smegmatis, Muller Hinton agar, 37° C. 42 hrs.
Procedure: as §3

[5] = system: S. aureus TY-04282 (MRSA); test: as above; type: cell-based; conditions: Staphylococcus aureus, 18 h
Procedure: as §3

[6] = system: Pseudomonasu aeruginosa A3; test: as above; type: cell-based; conditions: 18 h
Procedure: as §3

S. aureus Smith = test: as above; type: cell-based; conditions: Staphylococcus aureus, Muller Hinton agar, 37° C., 18 hrs.
Procedure: as §3

[7] = system: E. faecium NCTC 12202 (VRE, vanA); test: as above; type: cell-based; conditions: Enterococcus faecium, 18 h
Procedure: as §3

[8] = system: Micrococcus luteus FDA 16; test: as above; type: cell-based; conditions: FDA16, Muller Hinton agar, 37° C., 18 hrs.
Procedure: as §3

[9] = system: S. aureus MRSA No. 5 (MRSA); test: as above; type: cell-based; conditions: Staphylococcus aureus, 18 h
Procedure: as §3

[10] = system: Bacillus subtilis NRRL B-558; test: as above; type: cell-based; conditions: NRRLB558, Muller Hinton agar, 37° C., 18 hrs.
Procedure: as §3

[11] = system: Staphylococcus aureus FDA 209P; test: as above; type: cell-based; conditions: FDA209P, Muller Hinton agar, 37° C., 18 hrs.
Procedure: as §3

[12] = system: Enterococcus faecalis JCM 5803; test: as above; type: cell-based; conditions: JCM5803, Muller Hinton agar, 37° C., 18 hrs.
Procedure: as §3

M. luteus IFO 3333 = test: as above; type: cell-based; conditions: Micrococcus luteus, IFO3333, Muller Hinton agar, 37° C., 18 hrs.
Procedure: as §3

[13] = system: Corynebacterium bovis 1810; test: as above; type: cell-based; conditions: Muller Hinton agar, 37° C., 18 hrs.
Procedure: as §3

B. cereus ATCC 10702 = test: as above; type: cell-based; conditions: Bacillus cereus, ATCC10702, Muller Hinton agar, 37° C., 18 hrs.
Procedure: as §3

B. subtilis PCI 219 = test: as above; type: cell-based; conditions: Bacillus subtilis, PCI219, Muller Hinton agar, 37° C., 18 hrs.
Procedure: as §3

[14] = system: S. aureus MRSA No. 17 (MRSA); test: as above; type: cell-based; conditions: Staphylococcus aureus, 18 h
Procedure: as §3

Escherichia coli NIHJ = test: as above; type: cell-based; conditions: Muller Hinton agar, 37° C., 18 hrs.
Procedure: as §3

S. aureus MS9610 (MDR) = test: as above; type: cell-based; conditions: Staphylococcus aureus, 18 h
Procedure: as §3

[15] = system: E. faecalis NCTC 12203 (VRE, vanA); test: as above; type: cell-based; conditions: Enterococcus faecalis, 18 h
Procedure: as §3

M. luteus PCI 1001 = test: as above; type: cell-based; conditions: Micrococcus luteus, PCI1001, Muller Hinton agar, 37° C., 18 hrs.
Procedure: as §3

S. aureus MS16526 (MRSA) = test: as above; type: cell-based; conditions: Staphylococcus aureus, 18 h
Procedure: as §3

[16] = target: T1, YycG of Bacillus subtilis 168 strain (YycG-204-611) (Bacillus subtilis, UniProt Q45614); test: YycG histidine kinase activity inhibitory test; type: biochemical; conditions: YycG-204-611, [γ-32P]ATP, 30° C.
T1 construct: a region containing the 204th amino acid to the 611th amino acid from the N-terminus; made in house; host or cells: Escherichia coli
Procedure: Signamycin A and signamycin B were measured for enzyme inhibitory activity against YycG of Bacillus subtilis 168 strain (B. subtilis 168).
as §1
as §2, with “204th” for “209th”, “611th” for “484th”, “Bacillus subtilis 168” for “soft-rot bacteria MAFF301393”, “pET-yycGtru” for “pET-pehScM2-2”, “YycG (YycG-204-611).” for “PehS (PehS-209-484).”
The reaction solution having the following formulation was used for measuring histidine kinase activity: 0.5 μM YycG-204-611, 50 mM Tris-HCl (pH 8.5), 100 mM KCl, 100 mM NH4Cl and 5 mM MgCl2. A 2.5 μM ATP-10 μCi [γ-^32P]ATP mixture was added to the reaction solution to initiate the reaction so that the total amount was adjusted to 10 μL. The resultant mixture was incubated at 30° C. for 10 min. After termination of the reaction, SDS-polyacrylamide gel electrophoresis was performed. […]

[17] = target: VicK of caries bacteria (VicK-31-450) (Streptococcus mutans, UniProt Q8DT64); test: VicK histidine kinase activity inhibitory test; type: biochemical; conditions: VicK-31-450, [32P]ATP, 25° C.
Procedure: Signamycin A and signamycin B were measured for enzyme inhibitory activity against VicK of caries bacteria (Streptococcus mutans).
The histidine kinase activity was measured by a modified method of the method reported in Biosci. Biotechnol. Biochem., 64, 919-923, 2000.
as §2, with “VicK” for “YycG”, “31th” for “209th”, “450th” for “484th”, “caries bacteria,” for “soft-rot bacteria MAFF301393 strain,”, “pET-SMvicK31-450” for “pET-pehScM2-2”, “VicK (VicK-31-450).” for “PehS (PehS-209-484).”
The reaction solution having the following formulation was used for measuring histidine kinase activity: […] VicK-31-450, 50 mM Tris-HCl (pH 7.5), 50 mM KCl and 10 mM MgCl2. Signamycin A or signamycin B (1 μL) was added to the reaction solution (7 μl), followed by incubating at 25° C. for 5 min. Subsequently, 2 μL of 12.5 µM ATP containing [^32P]ATP was added to the reaction mixture (final concentration: […]) to initiate the reaction, followed by incubating at 25° C. for 20 min. […]

[18] = system: Staphylococcus aureus (S. aureus); test: Antimicrobial activity, summary in words for the species; type: cell-based; conditions: summary of Table 1
Procedure: as §3

[19] = system: Enterococcus (E. faecalis and E. faecium); test: Antimicrobial activity, summary in words for the genus; type: cell-based; conditions: summary of Table 1
Procedure: as §3

Sequence of PehS of soft-rot bacteria MAFF301393 strain (PehS-209-484) (Q9ZIN8 entry or part of it): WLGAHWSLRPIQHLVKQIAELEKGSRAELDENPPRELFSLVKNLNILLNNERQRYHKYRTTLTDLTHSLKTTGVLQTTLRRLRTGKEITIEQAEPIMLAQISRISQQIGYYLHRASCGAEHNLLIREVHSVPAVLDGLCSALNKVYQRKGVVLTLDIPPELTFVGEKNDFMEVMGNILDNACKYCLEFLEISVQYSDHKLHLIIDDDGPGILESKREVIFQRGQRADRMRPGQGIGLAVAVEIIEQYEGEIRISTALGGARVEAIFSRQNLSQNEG
T1 sequence (Q45614 204-611): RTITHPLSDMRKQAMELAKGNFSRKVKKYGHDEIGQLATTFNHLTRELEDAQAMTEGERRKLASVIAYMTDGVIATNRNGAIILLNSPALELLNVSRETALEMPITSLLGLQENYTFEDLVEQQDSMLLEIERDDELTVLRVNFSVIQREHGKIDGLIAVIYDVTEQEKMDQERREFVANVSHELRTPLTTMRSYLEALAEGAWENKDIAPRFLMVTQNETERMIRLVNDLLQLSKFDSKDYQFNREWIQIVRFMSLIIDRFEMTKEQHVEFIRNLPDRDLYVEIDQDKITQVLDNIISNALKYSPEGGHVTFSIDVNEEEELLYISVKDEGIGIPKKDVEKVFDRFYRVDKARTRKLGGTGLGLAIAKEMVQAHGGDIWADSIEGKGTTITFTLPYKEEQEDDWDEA
Sequence of VicK of caries bacteria (VicK-31-450) (Q8DT64 entry or part of it): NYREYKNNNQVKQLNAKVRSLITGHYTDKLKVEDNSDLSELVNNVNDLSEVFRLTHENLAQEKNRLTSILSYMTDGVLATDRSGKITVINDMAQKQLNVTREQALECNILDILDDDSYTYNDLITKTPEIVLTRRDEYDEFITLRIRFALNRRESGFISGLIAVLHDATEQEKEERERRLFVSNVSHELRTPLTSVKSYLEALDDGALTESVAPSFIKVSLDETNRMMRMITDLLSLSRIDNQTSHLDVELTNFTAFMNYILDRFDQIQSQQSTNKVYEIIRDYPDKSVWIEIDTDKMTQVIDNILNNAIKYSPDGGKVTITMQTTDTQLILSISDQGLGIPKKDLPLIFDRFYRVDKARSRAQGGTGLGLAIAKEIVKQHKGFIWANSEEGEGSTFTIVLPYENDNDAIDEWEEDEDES

## CCC1C(C)=CC2CC(C)C(O)C(CC)C2C1/C(O)=C1/C(=O)NC(C)C1=O (stereo not drawn) [Signamycin A, signamycin A]
[1]
  IC50: 33.6 µM
  inhibitory activity against PehS (in words): strong inhibitory activity
[2]
  MIC: 8 µg/mL (≈ 21.3 µM)
[3]
  MIC: 16 µg/mL (≈ 42.6 µM)
E. faecium JCM 5804
  MIC: 8 µg/mL (≈ 21.3 µM)
[4]
  MIC: 32 µg/mL (≈ 85.2 µM)
[5]
  MIC: 8 µg/mL (≈ 21.3 µM)
[6]
  MIC: > 100 µg/mL
S. aureus Smith
  MIC: 8 µg/mL (≈ 21.3 µM)
[7]
  MIC: 16 µg/mL (≈ 42.6 µM)
[8]
  MIC: 8 µg/mL (≈ 21.3 µM)
[9]
  MIC: 8 µg/mL (≈ 21.3 µM)
[10]
  MIC: 4 µg/mL (≈ 10.7 µM)
[11]
  MIC: 4 µg/mL (≈ 10.7 µM)
[12]
  MIC: 16 µg/mL (≈ 42.6 µM)
M. luteus IFO 3333
  MIC: 8 µg/mL (≈ 21.3 µM)
[13]
  MIC: 8 µg/mL (≈ 21.3 µM)
B. cereus ATCC 10702
  MIC: 4 µg/mL (≈ 10.7 µM)
B. subtilis PCI 219
  MIC: 4 µg/mL (≈ 10.7 µM)
[14]
  MIC: 8 µg/mL (≈ 21.3 µM)
Escherichia coli NIHJ
  MIC: 32 µg/mL (≈ 85.2 µM)
S. aureus MS9610 (MDR)
  MIC: 8 µg/mL (≈ 21.3 µM)
[15]
  MIC: 8 µg/mL (≈ 21.3 µM)
M. luteus PCI 1001
  MIC: 8 µg/mL (≈ 21.3 µM)
S. aureus MS16526 (MRSA)
  MIC: 8 µg/mL (≈ 21.3 µM)
[16]
  IC50: 138 µM
[17]
  IC50: 239 µM
[18]
  antimicrobial activity against Staphylococcus aureus (in words): high antimicrobial activity

## CCCC1C(C)=CC2CC(C)C(O)C(CC)C2C1/C(O)=C1/C(=O)NC(C)C1=O (stereo not drawn) [Signamycin B, signamycin B]
[1]
  IC50: 15.7 µM
  inhibitory activity against PehS (in words): strong inhibitory activity
[2]
  MIC: 8 µg/mL (≈ 20.5 µM)
[3]
  MIC: 8 µg/mL (≈ 20.5 µM)
E. faecium JCM 5804
  MIC: 8 µg/mL (≈ 20.5 µM)
[4]
  MIC: 64 µg/mL (≈ 164 µM)
[5]
  MIC: 4 µg/mL (≈ 10.3 µM)
[6]
  MIC: > 100 µg/mL
S. aureus Smith
  MIC: 4 µg/mL (≈ 10.3 µM)
[7]
  MIC: 8 µg/mL (≈ 20.5 µM)
[8]
  MIC: 4 µg/mL (≈ 10.3 µM)
[9]
  MIC: 4 µg/mL (≈ 10.3 µM)
[10]
  MIC: 4 µg/mL (≈ 10.3 µM)
[11]
  MIC: 4 µg/mL (≈ 10.3 µM)
[12]
  MIC: 8 µg/mL (≈ 20.5 µM)
M. luteus IFO 3333
  MIC: 4 µg/mL (≈ 10.3 µM)
[13]
  MIC: 8 µg/mL (≈ 20.5 µM)
B. cereus ATCC 10702
  MIC: 2 µg/mL (≈ 5.13 µM)
B. subtilis PCI 219
  MIC: 4 µg/mL (≈ 10.3 µM)
[14]
  MIC: 4 µg/mL (≈ 10.3 µM)
Escherichia coli NIHJ
  MIC: 64 µg/mL (≈ 164 µM)
S. aureus MS9610 (MDR)
  MIC: 4 µg/mL (≈ 10.3 µM)
[15]
  MIC: 8 µg/mL (≈ 20.5 µM)
M. luteus PCI 1001
  MIC: 4 µg/mL (≈ 10.3 µM)
S. aureus MS16526 (MRSA)
  MIC: 4 µg/mL (≈ 10.3 µM)
[16]
  IC50: 43 µM
[19]
  antimicrobial activity against Enterococcus (in words): high antimicrobial activity
[17]
  IC50: 62.2 µM
[18]
  antimicrobial activity against Staphylococcus aureus (in words): high antimicrobial activity
